biological target: T1, HIV-integrase (Human immunodeficiency virus type 1 group M subtype B, UniProt P12497); experiment: HIV-Integrase Inhibition Activity (SPA bead strand-transfer assay); assay type: biochemical; conditions: Table 1; read-out: Activity (HIV-integrase inhibition, IC50 class)
T1 construct: Recombinant integrase (0.26 ng) was incubated with the beads
Procedure, shortened: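 Biotin-labelled substrate DNA (5 pmole) bound to streptavidin SPA beads, preloaded with recombinant integrase (0.26 ng) for 90 min at 37° C, then washed. Inhibitors and 0.1 fmol P33-labelled target DNA added; reaction stopped with 10 mM EDTA. Integration read as scintillation CPM.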

| Structure (SMILES) | IC50 [nM] |
| --- | --- |
| COc1ncc(-c2ccccc2CNC(=O)c2nc3n(c(=O)c2O)CCOC3(C)C)c(OC)n1 [Example 149, Pyrimido[2,1-c][1,4]oxazine-2-carboxamide, N-[[2-(2,4-dimethoxy-5-pyrimidinyl)phenyl]methyl]-4,6,7,9-tetrahydro-3-hydroxy-9,9-dimethyl-4-oxo-] | 2 to 100 |
| CC1(C)OCCn2c1nc(C(=O)NCc1ccccc1-c1cccnc1)c(O)c2=O [Example 150, Pyrimido[2,1-c][1,4]oxazine-2-carboxamide, 4,6,7,9-tetrahydro-3-hydroxy-9,9-dimethyl-4-oxo-N-[[2-(3-pyridinyl)phenyl]methyl]-] | 2 to 100 |
| CC1(C)OCCn2c1nc(C(=O)NCc1ccccc1-c1ccc(F)nc1)c(O)c2=O [Example 151] | 2 to 100 |
| COc1ncccc1-c1ccccc1CNC(=O)c1nc2n(c(=O)c1O)CCOC2(C)C [Example 152, Pyrimido[2,1-c][1,4]oxazine-2-carboxamide, 4,6,7,9-tetrahydro-3-hydroxy-N-[[2-(2-methoxy-3-pyridinyl)phenyl]methyl]-9,9-dimethyl-4-oxo-] | 2 to 100 |
| COc1cncc(-c2ccccc2CNC(=O)c2nc3n(c(=O)c2O)CCOC3(C)C)c1 [Example 153, Pyrimido[2,1-c][1,4]oxazine-2-carboxamide, 4,6,7,9-tetrahydro-3-hydroxy-N-[[2-(5-methoxy-3-pyridinyl)phenyl]methyl]-9,9-dimethyl-4-oxo-] | 2 to 100 |
| COc1ccc(-c2ccccc2CNC(=O)c2nc3n(c(=O)c2O)CCOC3(C)C)c(OC)n1 [Example 154, Pyrimido[2,1-c][1,4]oxazine-2-carboxamide, N-[[2-(2,6-dimethoxy-3-pyridinyl)phenyl]methyl]-4,6,7,9-tetrahydro-3-hydroxy-9,9-dimethyl-4-oxo-] | 2 to 100 |
| CC1(C)OCCn2c1nc(C(=O)NCc1ccccc1-c1cnn(Cc3ccccc3)c1)c(O)c2=O [Example 155, Pyrimido[2,1-c][1,4]oxazine-2-carboxamide, 4,6,7,9-tetrahydro-3-hydroxy-9,9-dimethyl-4-oxo-N-[[2-[1-(phenylmethyl)-1H-pyrazol-4-yl]phenyl]methyl]-] | 2 to 100 |
| CC1(C)OCCn2c1nc(C(=O)NCc1ccccc1-c1ccc(N3CCOCC3)nc1)c(O)c2=O [Example 156, Pyrimido[2,1-c][1,4]oxazine-2-carboxamide, 4,6,7,9-tetrahydro-3-hydroxy-9,9-dimethyl-N-[[2-[6-(4-morpholinyl)-3-pyridinyl]phenyl]methyl]-4-oxo-] | 2 to 100 |
| CC1(C)OCCn2c1nc(C(=O)NCc1ccccc1-c1ccc(N)nc1)c(O)c2=O [Example 157, Pyrimido[2,1-c][1,4]oxazine-2-carboxamide, N-[[2-(6-amino-3-pyridinyl)phenyl]methyl]-4,6,7,9-tetrahydro-3-hydroxy-9,9-dimethyl-4-oxo-] | 2 to 100 |
| CCCn1cc(-c2ccccc2CNC(=O)c2nc3n(c(=O)c2O)CCOC3(C)C)cn1 [Example 158, Pyrimido[2,1-c][1,4]oxazine-2-carboxamide, 4,6,7,9-tetrahydro-3-hydroxy-9,9-dimethyl-4-oxo-N-[[2-(1-propyl-1H-pyrazol-4-yl)phenyl]methyl]-] | 2 to 100 |
| CN1CCN(c2cc(-c3ccccc3CNC(=O)c3nc4n(c(=O)c3O)CCOC4(C)C)ccn2)CC1 [Example 159, Pyrimido[2,1-c][1,4]oxazine-2-carboxamide, 4,6,7,9-tetrahydro-3-hydroxy-9,9-dimethyl-N-[[2-[2-(4-methyl-1-piperazinyl)-4-pyridinyl]phenyl]methyl]-4-oxo-] | 100 to 1000 |
| CC1(C)OCCn2c1nc(C(=O)NCc1ccccc1-c1ccccc1)c(O)c2=O [Example 160, Pyrimido [2,1-c][1,4]oxazine-2-carboxamide, N-([1,1′-biphenyl]-2-ylmethyl)-4,6,7,9-tetrahydro-3-hydroxy-9,9-dimethyl-4-oxo-] | 2 to 100 |
| COc1cc(Cl)ccc1-c1ccccc1CNC(=O)c1nc2n(c(=O)c1O)CCOC2(C)C [Example 161, Pyrimido[2,1-c][1,4]oxazine-2-carboxamide, N-[(4′-chloro-2′-methoxy[1,1′-biphenyl]-2-yl)methyl]-4,6,7,9-tetrahydro-3-hydroxy-9,9-dimethyl-4-oxo-] | 2 to 100 |
| Cc1ccc(-c2ccccc2CNC(=O)c2nc3n(c(=O)c2O)CCOC3(C)C)cc1 [Example 162, Pyrimido[2,1-c][1,4]oxazine-2-carboxamide, 4,6,7,9-tetrahydro-3-hydroxy-9,9-dimethyl-N-[(4′-methyl[1,1′-biphenyl]-2-yl)methyl]-4-oxo-] | 2 to 100 |
| Cc1cccc(-c2ccccc2CNC(=O)c2nc3n(c(=O)c2O)CCOC3(C)C)c1 [Example 163, Pyrimido[2,1-c][1,4]oxazine-2-carboxamide, 4,6,7,9-tetrahydro-3-hydroxy-9,9-dimethyl-N-[(3′-methyl[1,1′-biphenyl]-2-yl)methyl]-4-oxo-] | 2 to 100 |
| COc1cccc(-c2ccccc2CNC(=O)c2nc3n(c(=O)c2O)CCOC3(C)C)c1 [Example 164, Pyrimido[2,1-c][1,4]oxazine-2-carboxamide, 4,6,7,9-tetrahydro-3-hydroxy-N-[(3′-methoxy[1,1′-biphenyl]-2-yl)methyl]-9,9-dimethyl-4-oxo-] | 2 to 100 |

| Structure (SMILES) | IC50 [nM] |
| --- | --- |
| CC1(C)OCCn2c1nc(C(=O)NCc1ccccc1-c1cccc(O)c1)c(O)c2=O [Example 165, Pyrimido[2,1-c][1,4]oxazine-2-carboxamide, 4,6,7,9-tetrahydro-3-hydroxy-N-[(3′-hydroxy[1,1′-biphenyl]-2-yl)methyl]-9,9-dimethyl-4-oxo-] | 2 to 100 |
| CC1(C)OCCn2c1nc(C(=O)NCc1ccccc1-c1ccc(C#N)cc1)c(O)c2=O [Example 166, Pyrimido[2,1-c][1,4]oxazine-2-carboxamide, N-[(4′-cyano[1,1′-biphenyl]-2-yl)methyl]-4,6,7,9-tetrahydro-3-hydroxy-9,9-dimethyl-4-oxo-] | 100 to 1000 |
| CC1(C)OCCn2c1nc(C(=O)NCc1ccccc1-c1cccc(C#N)c1)c(O)c2=O [Example 167, Pyrimido[2,1-c][1,4]oxazine-2-carboxamide, N-[(3′-cyano[1,1′-biphenyl]-2-yl)methyl]-4,6,7,9-tetrahydro-3-hydroxy-9,9-dimethyl-4-oxo-] | 2 to 100 |
| CC1(C)OCCn2c1nc(C(=O)NCc1ccccc1-c1ccc(N3CCOCC3)cc1)c(O)c2=O [Example 168, Pyrimido[2,1-c][1,4]oxazine-2-carboxamide, 4,6,7,9-tetrahydro-3-hydroxy-9,9-dimethyl-N-[[4′-(4-morpholinyl)[1,1′-biphenyl]-2-yl]methyl]-4-oxo-] | 2 to 100 |
| CC1(C)OCCn2c1nc(C(=O)NCc1ccccc1-c1ccc(CN)cc1)c(O)c2=O [Example 169] | 2 to 100 |
| CN(C)C(=O)c1ccc(-c2ccccc2CNC(=O)c2nc3n(c(=O)c2O)CCOC3(C)C)cc1 [Example 170, Pyrimido[2,1-c][1,4]oxazine-2-carboxamide, N-[[4′-[(dimethylamino)carbonyl][1,1′-biphenyl]-2-yl]methyl]-4,6,7,9-tetrahydro-3-hydroxy-9,9-dimethyl-4-oxo-] | 2 to 100 |
| CN(C)C(=O)c1cccc(-c2ccccc2CNC(=O)c2nc3n(c(=O)c2O)CCOC3(C)C)c1 [Example 171] | 2 to 100 |
| CC1(C)OCCn2c1nc(C(=O)NCc1ccccc1-c1cccc(C(=O)N3CCCC3)c1)c(O)c2=O [Example 172, Pyrimido[2,1-c][1,4]oxazine-2-carboxamide, 4,6,7,9-tetrahydro-3-hydroxy-9,9-dimethyl-4-oxo-N-[[3′-(1-pyrrolidinylcarbonyl)[1,1′-biphenyl]-2-yl]methyl]-] | 2 to 100 |
| CC1(C)OCCn2c1nc(C(=O)NCc1ccccc1-c1ccc(C(N)=O)cc1)c(O)c2=O [Example 173, Pyrimido[2,1-c][1,4]oxazine-2-carboxamide, N-[[4′-(aminocarbonyl)[1,1′-biphenyl]-2-yl]methyl]-4,6,7,9-tetrahydro-3-hydroxy-9,9-dimethyl-4-oxo-] | 2 to 100 |
| CC1(C)OCCn2c1nc(C(=O)NCc1ccccc1-c1cccc(C(N)=O)c1)c(O)c2=O [Example 174, Pyrimido[2,1-c][1,4]oxazine-2-carboxamide, N-[[3′-(aminocarbonyl)[1,1′-biphenyl]-2-yl]methyl]-4,6,7,9-tetrahydro-3-hydroxy-9,9-dimethyl-4-oxo-] | 2 to 100 |
| CNC(=O)c1ccc(-c2ccccc2CNC(=O)c2nc3n(c(=O)c2O)CCOC3(C)C)cc1 [Example 175, Pyrimido[2,1-c][1,4]oxazine-2-carboxamide, 4,6,7,9-tetrahydro-3-hydroxy-9,9-dimethyl-N-[[4′-[(methylamino)carbonyl][1,1′-biphenyl]-2-yl]methyl]-4-oxo-] | 2 to 100 |
| CC1(C)OCCn2c1nc(C(=O)NCc1ccccc1-c1cccc(NS(C)(=O)=O)c1)c(O)c2=O [Example 176, Pyrimido[2,1-c][1,4]oxazine-2-carboxamide, 4,6,7,9-tetrahydro-3-hydroxy-9,9-dimethyl-N-[[3′-[(methylsulfonyl)amino][1,1′-biphenyl]-2-yl]methyl]-4-oxo-] | 2 to 100 |
| CC1(C)OCCn2c1nc(C(=O)NCc1ccccc1-c1ccc3[nH]ccc3c1)c(O)c2=O [Example 177, Pyrimido[2,1-c][1,4]oxazine-2-carboxamide, 4,6,7,9-tetrahydro-3-hydroxy-N-[[2-(1H-indol-5-yl)phenyl]methyl]-9,9-dimethyl-4-oxo-] | 2 to 100 |
| CN(C)Cc1ccc(-c2ccccc2CNC(=O)c2nc3n(c(=O)c2O)CCOC3(C)C)cc1 [Example 178, Pyrimido[2,1-c][1,4]oxazine-2-carboxamide, N-[[4′-[(dimethylamino)methyl][1,1′-biphenyl]-2-yl]methyl]-4,6,7,9-tetrahydro-3-hydroxy-9,9-dimethyl-4-oxo-] | 2 to 100 |
| CC1(C)OCCn2c1nc(C(=O)NCc1ccccc1-c1ccsc1)c(O)c2=O [Example 179, Pyrimido[2,1-c][1,4]oxazine-2-carboxamide, 4,6,7,9-tetrahydro-3-hydroxy-9,9-dimethyl-4-oxo-N-[[2-(3-thienyl)phenyl]methyl]-] | 2 to 100 |
